Reference: patent US6077872A (priority 1998, dated 2000)
Like-named read-outs stand apart in the source and are kept apart here.

How the values were obtained:
ovariectomized rats = details: for serum Ca / serum P / serum Tr-ACP (in Bessey-Loury unit) / serum AKP (in Bessey-Loury unit): 75 days; for serum Ca: model-control 1.40 ± 0.72; for serum P: model-control 1.91 ± 0.34; for serum Tr-ACP (in Bessey-Loury unit): model-control 8.4 ± 2.8; for serum AKP (in Bessey-Loury unit): model-control 50.3 ± 15
Experimental: (3) Pure synthetic low-calcium diet was formulated by mixing 40% fine wheat flour, 40% maize flour, 10% tyroprotein, 5% peanut oil, 3% AIN-76 mixed salts, 1% AIN-76 mixed vitamins, 1% cellulose and 0.3% DL-methionine, in which the calcium salt in AIN-76 mixed salts was replaced by glucose, and this preparation contains 64 mg calcium/100 g.
The test period was 75 days.
Serum Ca, P and AKP were measured by a 4010 Automatic Biochemical Analyzer. Serum Ca was determined by calorimetric method using methylthymol blue. Serum P was determined by Mono-Reagent Method. Alkaline phosphatase was determined by method of disodium p-nitrophenylphosphonate (AKP) The tartaric-resistant acidic phosphatase (Tr-ACP) mineral was determined by Piedra procedure. All above reagent-box were available from the Clinical Chemicals Sub-plant of Beijing Chemical Plant.

preschool children = details: for children having normal BMDs: groups I and II
Experimental: Seventy 3-6 years old healthy children whose bone mineral density were medium-lower at a central kindergarten in the suburban county of Beijing were selected as subjects, wherein there are 13 boys and 57 girls. All were healthy children who didn't have any metabolic diseases, liver or kidney diseases, bone wounds and abnormal diseases.
Double blind method was employed during the observation. Every person was administered calcium preparation or placebo twice a day in a dosage of 1 bag each time. […] Group IV, established as blank-control group, was administered placebo which didn't contain calcium. All the above oral preparations were provided by Beijing Juneng Asian-Pacific Life Science Research Center.
(1) Bone mineral density was measured before the test and 1.5 months and 3 months later after the administration of Ca supplements.
The bone mineral density of radius in non-preferred hand was measured at the 1/3 point near the farther-end by a Model BMD400 Single-Photon absorptiometry produced conjointly by Institute of Atomic Energy, Ministry of Nuclear Industry, China and Institute of Broadcasting, Beijing, to obtain mean mineral bone density (BMD, g/cm^2). Each point was scanned twice with a scanning speed of 0.5 mm/sec.
All data was analyzed with a SAS statistical software package.

rickets-babies [1] = details: for craniomalacia, babies with symptom after the beginning of test: before test 3 (threonate), 4 (carbonate); for pillow-bald, babies with symptom after the beginning of test: before test 9 (threonate), 9 (carbonate); for night-sweat, babies with symptom after the beginning of test: before test 12 (threonate), 13 (carbonate)
Experimental: Fourty rickets-babies at the age of 3-10 months were randomly divided into 2 groups of 20 babies each. […] Test group II, namely the calcium carbonate group, were administered orally calcium carbonate twice a day in a dosage of one bag each time. Each bag of the two kind of calcium preparations contained the same amount of element calcium, namely 150 mg element calcium.
(1) Clinic symptoms mainly included the normal symptoms of rickets-babies such as night-sweat, pillow-bald, craniomalacia, etc.

rickets-babies [2] = test system: rickets-babies
Experimental: Fourty rickets-babies at the age of 3-10 months were randomly divided into 2 groups of 20 babies each. […] Test group II, namely the calcium carbonate group, were administered orally calcium carbonate twice a day in a dosage of one bag each time.
(2) Biochemical examinations of blood. Venous blood of rickets-baby was sampled before and after the beginning of test and serum Ca, P and AKP level were measured and the product of [Ca]×[P] was calculated.
(3) Data processing: All data was statistically analyzed using the method of direct calculation of probability, grouping t-test and pairing t-test.
Considering the difficulty in sampling blood from rickets-babies during the test operation, blood sampling was not performed at the second week after the beginning of the test. Blood sampling was only performed before the test and at the fourth week after the beginning of the test.

[3] = test system: ovariectomized rats with osteoporosis; details: for Y (flexibility, tenacity): model-control 4.0 ± 1.1; for P (maximum of force at yielding point, femur strength): model-control 6.7 ± 1.2; for S (work to yield or break femur): model-control 11.3 ± 4.7
Experimental: Female rats at the age of 3 months were excised of bilateral ovaries under sterilized condition, and were then fed low-calcium diet and offered with deionized water for 75 days, thus made an osteoporosis model.
Seventy healthy rats were selected and divided randomly into five groups of 14 rats. […] Group 1-5 were administered one time per day and 6 times per week and were also fed low-calcium diet and de-ionized water. The test period was 75 days. When the test was finished, rats were killed by bleeding from bilateral thigh arteries, the separated serum was used for measurement of biochemical parameters such as Ca, P, and AKP and Tr-ACP levels in serum. The bilateral femurs of rats were stripped off and stored in refrigerator. After the measurement of the bone mineral density, the left femur was stored for analysis of biomechanical characteristics. The right femur was stored for analysis of Ca content in femur.
Three-point bending test was done on the fresh femur iced in refrigerator with a Model WD-1 Electron Universal Test Machine under the following conditions: a span of 2.5 cm, a 25 kg sensor (1/50), a speed of 2 mm/minute. The function of load versus flexibility was recorded by a finction recorder, wherein P represented the maximum of force at yielding point, Y was flexibility indicating the tenacity of materials. K, as the rate of slope, was a rigidity parameter of materials and was associated with the degree of calcification in bone mechanics. S stood for the work to yield or break femur.

[4] = test system: castrated male rats with osteoporosis; details: for length of femur: model 3.26 ± 0.09; for ash weight of femur: model 187.5 ± 18.0; for calcium content of femur: model 245.1 ± 25.7; for dry weight of femur: model 360.0 ± 32.1; for wet weight of femur: model 638.3 ± 57.6
Experimental: After pulled off soft tissue, the right femur was dried for 5 hours in oven at the temperature of 120° C. until its weight kept a constant (dry weight), then the product was baked for 6 hours in muffle furnace at the temperature of 800° C. until the weight of the product kept a constant which was the ash weight, namely the total amount of inorganic salts. After part of the ash was resolved in dilute hydrochloride, the calcium content of ash was measured by the method of EDTA titration. All data was expressed as X±SD(n). The significance of differences between groups were assessed using the "T-test" method of two groups of small specimen.
In this test, the measuring methods for serum Ca, P, AKP levels, the bone mineral density, the length of femur, wet weight, dry weight, ash weight, the calcium content and the biomechanics of femur were all the same as in test II.

[5] = after four weeks of Ca-supplementing
[6] = 2.31 g/kg/d (300 mg calcium; Caltrate-D 0.65 g/kg/d)

## O=C(O)[C@H](O)[C@@H](O)CO [calcium L-threonate]
Ovariectomized rats; 100 mg element calcium/kg/d
  serum Ca: 1.60 ± 0.75 mmol/L
  serum P: 2.08 ± 0.66 mmol/L
  serum Tr-ACP (in Bessey-Loury unit): 8.8 ± 1.8 U/L
  serum AKP (in Bessey-Loury unit): 48.7 ± 8.0 U/L
Ovariectomized rats; 200 mg element calcium/kg/d
  serum Ca: 2.35 ± 0.35 mmol/L
  serum P: 1.87 ± 0.58 mmol/L
  serum Tr-ACP (in Bessey-Loury unit): 7.9 ± 2.4 U/L
  serum AKP (in Bessey-Loury unit): 41.4 ± 14 U/L
Ovariectomized rats; 300 mg element calcium/kg/d
  serum Ca: 2.30 ± 0.75 mmol/L
  serum P: 1.88 ± 0.58 mmol/L
  serum Tr-ACP (in Bessey-Loury unit): 7.2 ± 2.1 U/L
  serum AKP (in Bessey-Loury unit): 38.2 ± 10 U/L
Ovariectomized rats; chronic feeding
  AKP and Tr-ACP effect (in words): might decrease the AKP and Tr-ACP levels in serum
Ovariectomized rats; long-time feeding
  serum Ca effect (in words): markedly raise the serum calcium level
Ovariectomized rats; rat, in vivo
  blood P effect (in words): no evidence
Preschool children; 2 bags/day of 150 mg element calcium, 1.5 month, before test 0.379 (threonate), 0.369 (carbonate)
  bone mineral density: 0.424 ± 0.038 g/cm^2
Preschool children; 2 bags/day of 150 mg element calcium, 1.5 months
  extent of BMDs' increase: 11.87%
Preschool children; 2 bags/day of 150 mg element calcium, 3 month, before test 0.379 (threonate), 0.369 (carbonate)
  bone mineral density: 0.467 ± 0.027 g/cm^2
Preschool children; 2 bags/day of 200 mg element calcium, 1.5 month, before test 0.362 ± 0.026
  bone mineral density: 0.414 ± 0.027 g/cm^2
Preschool children; 2 bags/day of 200 mg element calcium, 1.5 months
  extent of BMDs' increase: 14.36%
Preschool children; 2 bags/day of 200 mg element calcium, 3 month, before test 0.362 ± 0.026
  bone mineral density: 0.460 ± 0.020 g/cm^2
Preschool children; 2 bags/day of 200 mg element calcium, 3 months
  extent of BMDs' increase: 25.41%
Preschool children; after 3 months
  fraction of children whose BMD reached the normal level: about 2/3
Preschool children; 1.5 months
  children having normal BMDs: about 12%
Preschool children; 3 months
  children having normal BMDs: ~72%
rickets-babies [1]; 300 mg element calcium
  therapeutic effect on baby rickets (in words): significantly superior to that of calcium carbonate
rickets-babies [1]; four weeks
  total symptom improvement: 100%
  craniomalacia, babies with symptom after the beginning of test: 0
  pillow-bald, babies with symptom after the beginning of test: 0
  night-sweat, babies with symptom after the beginning of test: 0
rickets-babies [1]; two weeks
  total symptom improvement: 62.5%
  craniomalacia, babies with symptom after the beginning of test: 2
  pillow-bald, babies with symptom after the beginning of test: 7
  night-sweat, babies with symptom after the beginning of test: 0
rickets-babies [1]; two weeks of administration (concluding text)
  rickets-babies free of symptoms: 62%
rickets-babies [2]; [5]
  percentage of babies whose AKP reached the normal range: 90%
  percentage of babies whose [Ca] × [P] reached the normal range: 100%
  percentage of babies whose serum P reached the normal range: 100%
rickets-babies [2]; before and after the test, P>0.05
  serum Ca change (in words): no significant variation
rickets-babies [2]; four weeks
  serum P and AKP after test versus normal range (in words): raise the indexes to the normal range of value
rickets-babies [2]; four weeks after, before 3.19 ± 0.25 (threonate), 3.12 ± 0.20 (carbonate)
  serum P: 4.50 ± 0.26
rickets-babies [2]; four weeks after, before 10.49 ± 0.39 (threonate), 10.51 ± 0.47 (carbonate)
  serum Ca: 10.65 ± 0.35
rickets-babies [2]; four weeks after, before 33.4 ± 2.47 (threonate), 33.83 ± 2.17 (carbonate)
  [Ca] × [P]: 47.34 ± 3.15
rickets-babies [2]; four weeks after, before 235.95 ± 7.89 (threonate), 235.25 ± 7.37 (carbonate)
  AKP: 203.75 ± 11.46
[3]; 100 mg element calcium/kg/d
  K (rigidity parameter, calcified degree): 2.71 ± 0.36
  Y (flexibility, tenacity): 4.1 ± 0.7
  P (maximum of force at yielding point, femur strength): 7.9 ± 1.0
  S (work to yield or break femur): 14.0
[3]; 200 mg element calcium/kg/d
  K (rigidity parameter, calcified degree): 2.75 ± 0.31
  Y (flexibility, tenacity): 5.3 ± 1.4
  P (maximum of force at yielding point, femur strength): 8.5 ± 0.8
[3]; 300 mg element calcium/kg/d
  Y (flexibility, tenacity): 5.9 ± 1.2
  P (maximum of force at yielding point, femur strength): 9.6 ± 1.7
  S (work to yield or break femur): 29.4
[4]; 0.76 g/kg/d
  length of femur: 3.34 ± 0.05 cm
  ash weight of femur: 233.1 ± 19.76 mg
  calcium content of femur: 267.0
  dry weight of femur: 416.7 ± 29.7 g
  wet weight of femur: 688.4 ± 47.4 g
[4]; 1.54 g/kg/d
  length of femur: 3.34 ± 0.08 cm
  ash weight of femur: 269.66 ± 23.4 mg
  calcium content of femur: 268.2
  dry weight of femur: 458.1 ± 39.1 g
  wet weight of femur: 720.2 ± 69.7 g
[4]; [6]
  length of femur: 3.35 ± 0.09 cm
  ash weight of femur: 278.2 ± 31.8 mg
  calcium content of femur: 266.7
  dry weight of femur: 473.4 ± 57.2 g
  wet weight of femur: 747.3 ± 95.2 g
[4]; rat, in vivo
  femur length, weights and calcium content (in words): markedly higher femur length, wet weight, dry weight, ash weight and calcium content than those of the model group rats
